Experimental data reported in patent publication US20230048132A1, “CYCLIN-DEPENDENT KINASE INHIBITORS” (SPV THERAPEUTICS INC., priority 2018, published 2023).

Legend:
BXF 5637 = assay: 2D cell proliferation assay (CellTiter-Blue); assay type: cell-based; conditions: 72 h, three days of treatment, read-out: abs. IC50
Outline: (§1)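 Fluorescence from CellTiter-Blue reduction served as the viability signal after cells had been treated for three days with up to 100 μM compound (five log-spaced doses). Values are IC50 from a four-parameter curve fit of treated/control signal.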

CEXF HeLa = assay: 2D cell proliferation assay (CellTiter-Blue); assay type: cell-based; conditions: Homo sapiens, 72 h, three days of treatment, read-out: abs. IC50
Outline: as §1

CNXF U-87 MG = assay: 2D cell proliferation assay (CellTiter-Blue); assay type: cell-based; conditions: Homo sapiens, 72 h, three days of treatment, read-out: abs. IC50
Outline: as §1

CXF COLO 205 = assay: 2D cell proliferation assay (CellTiter-Blue); assay type: cell-based; conditions: Homo sapiens, 72 h, three days of treatment, read-out: abs. IC50
Outline: as §1

CXF Caco-2 = assay: 2D cell proliferation assay (CellTiter-Blue); assay type: cell-based; conditions: Homo sapiens, 72 h, three days of treatment, read-out: abs. IC50
Outline: as §1

LEXFAM MV4-11 = assay: 2D cell proliferation assay (CellTiter-Blue); assay type: cell-based; conditions: Homo sapiens, 72 h, three days of treatment, read-out: abs. IC50
Outline: as §1

LEXFCL MEC-1 = assay: 2D cell proliferation assay (CellTiter-Blue); assay type: cell-based; conditions: Homo sapiens, MEC1, 72 h, three days of treatment, read-out: abs. IC50
Outline: as §1

LIXAH HLE = assay: 2D cell proliferation assay (CellTiter-Blue); assay type: cell-based; conditions: 72 h, three days of treatment, read-out: abs. IC50
Outline: as §1

LIXAH SNU-398 = assay: 2D cell proliferation assay (CellTiter-Blue); assay type: cell-based; conditions: Homo sapiens, 72 h, three days of treatment, read-out: abs. IC50
Outline: as §1

LIXFH HEP-3B = assay: 2D cell proliferation assay (CellTiter-Blue); assay type: cell-based; conditions: Homo sapiens, Hep3B, 72 h, three days of treatment, read-out: abs. IC50
Outline: as §1

LXFA A549 = assay: 2D cell proliferation assay (CellTiter-Blue); assay type: cell-based; conditions: Homo sapiens, 72 h, three days of treatment, read-out: abs. IC50
Outline: as §1

LXFA NCl-H1975 = assay: 2D cell proliferation assay (CellTiter-Blue); assay type: cell-based; conditions: 72 h, three days of treatment, read-out: abs. IC50
Outline: as §1

LXFE Calu-1 = assay: 2D cell proliferation assay (CellTiter-Blue); assay type: cell-based; conditions: Homo sapiens, 72 h, three days of treatment, read-out: abs. IC50
Outline: as §1

LXFL NCl-H460 = assay: 2D cell proliferation assay (CellTiter-Blue); assay type: cell-based; conditions: 72 h, three days of treatment, read-out: abs. IC50
Outline: as §1

LYXFNH Daudi = assay: 2D cell proliferation assay (CellTiter-Blue); assay type: cell-based; conditions: Homo sapiens, 72 h, three days of treatment, read-out: abs. IC50
Outline: as §1

MAXFHER BT-474 = assay: 2D cell proliferation assay (CellTiter-Blue); assay type: cell-based; conditions: Homo sapiens, 72 h, three days of treatment, read-out: abs. IC50
Outline: as §1

MAXFLB MCF7 (ER+) = assay: 2D cell proliferation assay (CellTiter-Blue); assay type: cell-based; conditions: Homo sapiens, 72 h, three days of treatment, read-out: abs. IC50
Outline: as §1

MAXFTN BT-549 = assay: 2D cell proliferation assay (CellTiter-Blue); assay type: cell-based; conditions: Homo sapiens, 72 h, three days of treatment, read-out: abs. IC50
Outline: as §1

MAXFTN MDA-MB-468 (ER−) = assay: 2D cell proliferation assay (CellTiter-Blue); assay type: cell-based; conditions: Homo sapiens, 72 h, three days of treatment, read-out: abs. IC50
Outline: as §1

MEXF WM-266-4 = assay: 2D cell proliferation assay (CellTiter-Blue); assay type: cell-based; conditions: Homo sapiens, 72 h, three days of treatment, read-out: abs. IC50
Outline: as §1

MMXF U-266 = assay: 2D cell proliferation assay (CellTiter-Blue); assay type: cell-based; conditions: Homo sapiens, 72 h, three days of treatment, read-out: abs. IC50
Outline: as §1

OVXF SK-OV-3 = assay: 2D cell proliferation assay (CellTiter-Blue); assay type: cell-based; conditions: Homo sapiens, 72 h, three days of treatment, read-out: abs. IC50
Outline: as §1

PAXF BxPC-3 = assay: 2D cell proliferation assay (CellTiter-Blue); assay type: cell-based; conditions: Homo sapiens, 72 h, three days of treatment, read-out: abs. IC50
Outline: as §1

PRXF DU-145 = assay: 2D cell proliferation assay (CellTiter-Blue); assay type: cell-based; conditions: Homo sapiens, 72 h, three days of treatment, read-out: abs. IC50
Outline: as §1

PRXF LNCaP = assay: 2D cell proliferation assay (CellTiter-Blue); assay type: cell-based; conditions: Homo sapiens, 72 h, three days of treatment, read-out: abs. IC50
Outline: as §1

PRXF VCap = assay: 2D cell proliferation assay (CellTiter-Blue); assay type: cell-based; conditions: Homo sapiens, 72 h, three days of treatment, read-out: abs. IC50
Outline: as §1

UXF EFE-184 = assay: 2D cell proliferation assay (CellTiter-Blue); assay type: cell-based; conditions: Homo sapiens, 72 h, three days of treatment, read-out: abs. IC50
Outline: as §1

UXF MFE-319 = assay: 2D cell proliferation assay (CellTiter-Blue); assay type: cell-based; conditions: 72 h, three days of treatment, read-out: abs. IC50
Outline: as §1

LEXFAL MOLT-4 = assay: 2D cell proliferation assay (CellTiter-Blue); assay type: cell-based; conditions: Homo sapiens, 72 h, three days of treatment, read-out: abs. IC50
Outline: as §1

[1] = Pharmacokinetics after IV bolus; assay type: in vivo; conditions: rat, plasma; rats; IV bolus 30 mg/kg; N = 3
Method: (§2) Nonclinical pharmacokinetic (PK) parameters of lead CDK4/6/9 inhibitors were determined in an intravenous (IV) and oral study (p.o.) conducted in rats. Lead compounds were each administered as a single oral dose at 100 mg/kg or by IV bolus via the caudal vein at the dose of 30 mg/kg. Blood samples were collected at 0.25, 0.5, 1, 2, 4, 8, 12, and 24 hours post i.v. administration, and at 1, 2, 4, 8, 24 and 48 hours post oral administration. Plasma was processed for drug concentration analysis using a validated LCMS/MS method, and PK parameters were calculated by using WinNonlin.

[2] = Pharmacokinetics after oral administration; assay type: in vivo; conditions: rat, plasma, rats
Method: as §2

[3] = oral administration 100 mg/kg, N = 3

| Structure (SMILES) | IC50 (BXF 5637) | IC50 (CEXF HeLa) | IC50 (CNXF U-87 MG) | IC50 (CXF COLO 205) | IC50 (CXF Caco-2) | IC50 (LEXFAM MV4-11) | IC50 (LEXFCL MEC-1) | IC50 (LIXAH HLE) | IC50 (LIXAH SNU-398) | IC50 (LIXFH HEP-3B) | IC50 (LXFA A549) | IC50 (LXFA NCl-H1975) | IC50 (LXFE Calu-1) | IC50 (LXFL NCl-H460) | IC50 (MAXFHER BT-474) | IC50 (MAXFLB MCF7 (ER+)) | IC50 (MAXFTN BT-549) | IC50 (MAXFTN MDA-MB-468 (ER−)) | IC50 (MEXF WM-266-4) | IC50 (MMXF U-266) | further results |
| --- | --- | --- | --- | --- | --- | --- | --- | --- | --- | --- | --- | --- | --- | --- | --- | --- | --- | --- | --- | --- | --- |
| O=C1NCC[C@@]12Cc1cnc(Nc3ccc(N4CCNCC4)cc3F)nc1N(C1CCCC1)C2=O [Example D146, (S)-8-cyclopentyl-2-((2-fluoro-4-(piperazin-1-yl)phenyl)amino)-5,8-dihydro-7H-spiro[pyrido[2,3-d]pyrimidine-6,3′-pyrrolidine]-2′,7-dione] | 1.49 µM | 1.57 µM | 10.8 µM | 0.577 µM | 23 µM | ≤ 0.01 µM | 0.142 µM | 0.928 µM | 0.251 µM | 3.67 µM | 3.41 µM | 0.356 µM | 5.96 µM | 2.13 µM | 5.55 µM | 1.04 µM | 2.31 µM | 0.925 µM | 6.22 µM | 4.55 µM | IC50 (LYXFNH Daudi): 0.162 µM; IC50 (OVXF SK-OV-3): 8.26 µM; IC50 (PAXF BxPC-3): 0.756 µM; IC50 (PRXF DU-145): 0.544 µM; IC50 (PRXF LNCaP): 0.349 µM; IC50 (PRXF VCap): 1.26 µM; IC50 (UXF EFE-184): 2.08 µM; IC50 (UXF MFE-319): 1.14 µM |
| CC(C)N1CCN(c2ccc(Nc3ncc4c(n3)N(C3CCCC3)C(=O)[C@]3(CCNC3=O)C4)nc2)CC1 [Example D154, (S)-8-cyclopentyl-2-((5-(4-isopropylpiperazin-1-yl)pyridin-2-yl)amino)-5,8-dihydro-7H-spiro[pyrido[2,3-d]pyrimidine-6,3′-pyrrolidine]-2′,7-dione] | 17.6 µM | 72.6 µM | ≥ 100 µM | 4.76 µM | ≥ 100 µM | ≤ 0.01 µM | 9.7 µM | 21.5 µM | 6.84 µM | 78.9 µM | 79.2 µM | 26.3 µM | 48.7 µM | 35.3 µM | 81.1 µM | 29.8 µM | 19.6 µM | 72.9 µM | 81.3 µM | 78.5 µM | IC50 (OVXF SK-OV-3): 59.9 µM; IC50 (PAXF BxPC-3): 2.87 µM; IC50 (PRXF DU-145): 30.6 µM; IC50 (PRXF LNCaP): 31.1 µM; IC50 (PRXF VCap): 25.4 µM; IC50 (UXF EFE-184): 34.6 µM; IC50 (UXF MFE-319): 5.43 µM |
| CN(C)[C@H]1CCN(c2ccc(Nc3ncc4c(n3)N(C3CCCC3)C(=O)[C@]3(CCNC3=O)C4)nc2)C1 [Example D178, (S)-8-cyclopentyl-2-((5-((S)-3-(dimethylamino)pyrrolidin-1-yl)pyridin-2-yl)amino)-5,8-dihydro-7H-spiro[pyrido[2,3-d]pyrimidine-6,3′-pyrrolidine]-2′,7-dione] | 34.3 µM | 36.9 µM | 75.5 µM | 6.22 µM | ≥ 100 µM | ≤ 0.01 µM | 37 µM | 21.3 µM | 0.608 µM | 67.8 µM | 69.9 µM | 16.6 µM | 78.6 µM | 63.4 µM | 67.9 µM | 32 µM | 16.6 µM | 68.2 µM | 74.4 µM | 62.3 µM | IC50 (OVXF SK-OV-3): 76.7 µM; IC50 (PAXF BxPC-3): 12.1 µM; IC50 (PRXF DU-145): 19.2 µM; IC50 (PRXF LNCaP): 20.8 µM; IC50 (PRXF VCap): 21.1 µM; IC50 (UXF EFE-184): 22.6 µM; IC50 (UXF MFE-319): 11.3 µM |
| CN(C)CCOc1ccc(Nc2ncc3c(n2)N(C2CCCC2)C(=O)[C@]2(CCNC2=O)C3)cc1 [Example D179, (S)-8-cyclopentyl-2-((4-(2-(dimethylamino)ethoxy)phenyl)amino)-5,8-dihydro-7H-spiro[pyrido[2,3-d]pyrimidine-6,3′-pyrrolidine]-2′,7-dione] | 0.143 µM | 0.268 µM | ≥ 100 µM | 0.101 µM | ≥ 100 µM | ≤ 0.01 µM | 0.447 µM | 0.103 µM | 0.025 µM | 0.171 µM | 3.31 µM | 0.029 µM | 1.25 µM | 0.274 µM | 0.125 µM | 0.057 µM | 0.252 µM | 0.681 µM | 0.272 µM | 0.814 µM | IC50 (LEXFAL MOLT-4): 0.177 µM; IC50 (OVXF SK-OV-3): 0.772 µM; IC50 (PAXF BxPC-3): 0.116 µM; IC50 (PRXF DU-145): 0.047 µM; IC50 (PRXF LNCaP): 0.024 µM; IC50 (PRXF VCap): 0.037 µM; IC50 (UXF EFE-184): 0.244 µM; IC50 (UXF MFE-319): 0.144 µM; Cmax [1]: 6200 ng/mL; clearance [1]: 38.3 mL/min/kg; half-life [1]: 2.26 h; bioavailability ([2]; oral 100 mg/kg versus IV 30 mg/kg, read-out: BIOAVAILABILITY F): 36.3%; AUC [2, 3]: 14200 ng·h/mL; Cmax [2, 3]: 3360 ng/mL; MRT [2, 3]: 2.99 h; half-life [2, 3]: 3.1 h |
